“Also recorded” adds a separate entry of the source.
Key:
[1] = Solubility observation during SAR testing; format: physicochemical
[2] = system: LMNB1 in TRE-FLAG-LMNB1 MEF; test: Primary HCS assay, LMNB1 intensity, dose-response; format: cell-based, mouse; details: DOX medium, 48 h, ten-point dose-response
TRE-FLAG-LMNB1 MEF = test: Primary HCS assay, cell numbers; format: cell-based, mouse; details: 48 h
[3] = system: LMNA/C in TRE-FLAG-LMNB1 MEF; test: Primary HCS assay, LMNA/C intensity; format: cell-based, mouse; details: 48 h
[4] = system: LMNB1 in TRE-FLAG-LMNB1 MEF; test: Western blot of LMNB1 in TRE-FLAG-LMNB1 MEF; format: cell-based, mouse; details: 48 h, LMNB1/actin
LMNB1 = details: cited from earlier work
LMNB in HL-60 cells = details: cited from earlier work
ADLD patient fibroblasts = test: Antiproliferative activity and expanded toxicity measurements; format: cell-based, human; details: high density, two-day exposure

SMILES | Effect on LMNB1 levels in dose-response (in words) [2] | Cellular toxicity (in words) (TRE-FLAG-LMNB1 MEF) | also measured
COc1cccc(C2CC(c3ccccc3Cl)Nc3ncnn32)c1 (stereo not shown) [CID 663139] |  |  | Solubility (in words) [1]: caused solubility problems
COc1ccc(C2CC(c3ccccc3Cl)Nc3nc(N)nn32)cc1OC (stereo not shown) [CID 3154585] | limited response at the highest concentration tested |  | 
COc1ccc(C2CC(c3ccc(Cl)cc3Cl)Nc3nc(N)nn32)cc1OC (stereo not shown) [CID 3154587] | inactive |  | 
CCOc1ccccc1C1CC(c2ccccc2)Nc2nc(N)nn21 (stereo not shown) [CID 3512343] | retained some activity |  | 
O=C(NCc1ccco1)c1cc2nc(-c3ccc4c(c3)OCO4)cc(C(F)(F)F)n2n1 [MolPort-001–493–770] | very strong reduction of LMNB1, which was an artifact of image analysis |  | 
Oc1ccc(-c2nc(-c3ccncc3)c(-c3ccc(F)cc3)[nH]2)cc1 [SB202190] | dose-dependent decreases in LMNB1 levels | no or low toxicity | Effect on LMNA/C expression, selectivity (in words) [3]: selectively reduced LMNB1 over LMNA/C; Confirmation of LMNB1 reduction by Western blot (in words) [4]: concentration-dependently reduced both human-FLAG-LMNB1 and endogenous mouse LMNB1
Oc1c2ccccc2c2c3c(cccc13)N=N2 [SP600125] | dose-dependent decreases in LMNB1 levels; also recorded: maximum response with SP600125 was small and the curve not sigmoidal | no or low toxicity | Effect on LMNA/C expression, selectivity (in words) [3]: selectively reduced LMNB1 over LMNA/C; Confirmation of LMNB1 reduction by Western blot (in words) [4]: did not confirm
CCOc1ccc(N([C@@H](C)C(=O)Nc2ccc(Br)c(C)c2)S(C)(=O)=O)cc1 [UPCMLDCBRC1002139] | not tolerated |  | 
Cc1c(CNC(=O)c2nn3c(c2Cl)N[C@@H](c2ccccc2)C[C@@H]3C(F)(F)F)cnn1C [UPCMLDCBRC1040264] | abolished activity |  | 
COc1ccccc1NC(=S)N[C@@H](NC(=O)c1cccc(Br)c1)C(Cl)(Cl)Cl [UPCMLDCBRC1049772] | abolished activity |  | 
CO[C@H]1/C=C\C=C(/C)C(=O)NC2=CC(=O)C(NCCN(C)C)=C(C[C@@H](C)C[C@H](OC)[C@H](O)[C@@H](C)/C=C(\C)[C@@H]1OC(N)=O)C2=O [alvespimycin] |  | significant cellular toxicity | Effect on LMNB1 (in words) (LMNB1): reduced LMNB1
CC[C@@]1(O)C(=O)OCc2c1cc1n(c2=O)Cc2cc3ccccc3nc2-1 [camptothecin, (S)-( +)-camptothecin] | dose-dependent decreases in LMNB1 levels | cellular toxicity | Effect on LMNB levels (in words) (LMNB in HL-60 cells): reduce LMNB levels in HL-60 cells; Effect on cell numbers, nuclear morphology and cell size (in words) (ADLD patient fibroblasts): reduced cell numbers and caused cells to enlarge

Source: article PMC11873125 (Scientific Reports, 2025)
